Converted amounts (≈) assume the structure as drawn.

Type in all cases: functional
The test system of assay [1] is Mycoplasma putrefaciens. The assay can be described thus: Antimicrobial activity against Mycoplasma putrefaciens Jordanian isolates after 24 hrs by twofold serial dilution method.
The test system of assay [2] is Mycoplasma putrefaciens. The assay is described as follows: Antimicrobial activity against Mycoplasma putrefaciens French isolates after 24 hrs by twofold serial dilution method.
Assay [3] has as its system Mycoplasma putrefaciens. The assay is described as follows: Antimicrobial activity against Mycoplasma putrefaciens KS1 after 24 hrs by twofold serial dilution method.

In the case of `CCn1cc(C(=O)O)c(=O)c2ccc(C)nc21` [NALIDIXIC ACID], the MIC50 with Mycoplasma putrefaciens [1] and in the assay with Mycoplasma putrefaciens [2] was above 256 µg/mL in each case. The MIC90 against Mycoplasma putrefaciens [1] and against Mycoplasma putrefaciens [2] was above 256 µg/mL throughout. This compound also had an MIC against Mycoplasma putrefaciens [3] (KS1, 24 h) of 512 µg/mL (≈ 2200 µM).
GENTAMICIN: in the assay on Mycoplasma putrefaciens [1], the MIC50 was 32 µg/mL and the MIC90 came to 32 µg/mL. In addition, in the assay with Mycoplasma putrefaciens [2], the MIC50 came out at 64 µg/mL and the MIC90 stood at 64 µg/mL. The same compound registered a minimum inhibitory concentration (MIC) against Mycoplasma putrefaciens [3] of 64 µg/mL.
In the assay with Mycoplasma putrefaciens [1], `O=C(N[C@H](CO)[C@H](O)c1ccc([N+](=O)[O-])cc1)C(Cl)Cl` [CHLORAMPHENICOL] showed an MIC50 of 2 µg/mL (≈ 6.19 µM) and an MIC90 of 4 µg/mL (≈ 12.4 µM). In the assay with Mycoplasma putrefaciens [2], the MIC50 is 4 µg/mL (≈ 12.4 µM) and the MIC90 was 4 µg/mL (≈ 12.4 µM). In the assay with Mycoplasma putrefaciens [3] (KS1, 24 h), this compound came in with an MIC of 4 µg/mL (≈ 12.4 µM).
In the assay with Mycoplasma putrefaciens [1], `CN(C)[C@@H]1C(O)=C(C(N)=O)C(=O)[C@@]2(O)C(O)=C3C(=O)c4c(O)ccc(Cl)c4[C@@](C)(O)[C@H]3C[C@@H]12` [CHLORTETRACYCLINE] came in with an MIC50 of 4 µg/mL (≈ 8.35 µM) and an MIC90 of 4 µg/mL (≈ 8.35 µM). In the assay on Mycoplasma putrefaciens [2], the MIC50 was 8 µg/mL (≈ 16.7 µM) and the MIC90 was 16 µg/mL (≈ 33.4 µM). The compound also gave a minimal inhibitory concentration (MIC) in the assay on Mycoplasma putrefaciens [3] (KS1, 24 h) of 4 µg/mL (≈ 8.35 µM).
For `CN[C@@H]1[C@H](O[C@H]2[C@H](O[C@H]3[C@H](O)[C@@H](O)[C@H](N=C(N)N)[C@@H](O)[C@@H]3N=C(N)N)O[C@@H](C)[C@]2(O)C=O)O[C@@H](CO)[C@H](O)[C@H]1O` [STREPTOMYCIN], in the assay on Mycoplasma putrefaciens [1], the MIC50 was 32 µg/mL (≈ 55 µM) and the MIC90 came out at 32 µg/mL (≈ 55 µM). In the assay on Mycoplasma putrefaciens [2], this compound yielded an MIC50 of 32 µg/mL (≈ 55 µM) and an MIC90 of 64 µg/mL (≈ 110 µM). Also, in the assay on Mycoplasma putrefaciens [3] (KS1, 24 h), the lowest concentration to inhibit growth (MIC) was 64 µg/mL (≈ 110 µM).
As to `CCN1CCN(c2cc3c(cc2F)c(=O)c(C(=O)O)cn3C2CC2)CC1` [ENROFLOXACIN], the MIC50 against Mycoplasma putrefaciens [1] and against Mycoplasma putrefaciens [2] was 0.125 µg/mL (≈ 0.348 µM) in each case. The MIC90 with Mycoplasma putrefaciens [1] is 0.125 µg/mL (≈ 0.348 µM); in the assay with Mycoplasma putrefaciens [2], 0.25 µg/mL (≈ 0.696 µM). In addition, it took 0.125 µg/mL (≈ 0.348 µM) to inhibit growth in the assay with Mycoplasma putrefaciens [3] (KS1, 24 h) (MIC).
In the assay on Mycoplasma putrefaciens [1], `O=C(O)c1cn(C2CC2)c2cc(N3CCNCC3)c(F)cc2c1=O` [CIPROFLOXACIN] came in with an MIC50 of 0.25 µg/mL (≈ 0.754 µM) and an MIC90 of 0.25 µg/mL (≈ 0.754 µM). For the same compound, in the assay with Mycoplasma putrefaciens [2], the MIC50 came out at 0.25 µg/mL (≈ 0.754 µM) and the MIC90 was 0.5 µg/mL (≈ 1.51 µM). This compound also registered a minimum inhibitory concentration (MIC) against Mycoplasma putrefaciens [3] (KS1, 24 h) of 0.25 µg/mL (≈ 0.754 µM).
In the assay with Mycoplasma putrefaciens [1], `C[C@H]1c2cccc(O)c2C(=O)C2=C(O)[C@]3(O)C(=O)C(C(N)=O)=C(O)[C@@H](N(C)C)[C@@H]3[C@@H](O)[C@@H]21.O` [DOXYCYCLINE] gave an MIC50 of 0.125 µg/mL and an MIC90 of 0.25 µg/mL. In the assay on Mycoplasma putrefaciens [2], this compound gave an MIC50 of 0.25 µg/mL and an MIC90 of 2 µg/mL. Besides, the MIC in the assay with Mycoplasma putrefaciens [3] (KS1, 24 h) amounted to 0.03 µg/mL.
As to `CC[C@H]1OC(=O)C[C@@H](O)[C@H](C)[C@@H](O[C@@H]2O[C@H](C)[C@@H](O[C@H]3C[C@@](C)(O)[C@@H](O)[C@H](C)O3)[C@H](N(C)C)[C@H]2O)[C@@H](CC=O)C[C@@H](C)C(=O)/C=C/C(C)=C/[C@@H]1CO[C@@H]1O[C@H](C)[C@@H](O)[C@@H](OC)[C@H]1OC` [TYLOSIN], the MIC50 against Mycoplasma putrefaciens [1] amounted to 0.015 µg/mL (≈ 0.0164 µM); in the assay on Mycoplasma putrefaciens [2], 0.03 µg/mL (≈ 0.0327 µM). Besides, the figures for the MIC90 in the assay with Mycoplasma putrefaciens [1] and with Mycoplasma putrefaciens [2] were 0.015 µg/mL (≈ 0.0164 µM) and 0.06 µg/mL (≈ 0.0655 µM), respectively. The compound also gave an MIC against Mycoplasma putrefaciens [3] (KS1, 24 h) of 0.06 µg/mL (≈ 0.0655 µM).
On to `CN[C@@H]1[C@H](O)[C@H](NC)[C@H]2O[C@@]3(O)C(=O)C[C@@H](C)O[C@H]3O[C@@H]2[C@H]1O` [SPECTINOMYCIN], for which, in the assay with Mycoplasma putrefaciens [1], the MIC50 was 16 µg/mL (≈ 48.1 µM) and the MIC90 stood at 32 µg/mL (≈ 96.3 µM). In the assay on Mycoplasma putrefaciens [2], this compound gave an MIC50 of 16 µg/mL (≈ 48.1 µM) and an MIC90 of 16 µg/mL (≈ 48.1 µM). In the assay on Mycoplasma putrefaciens [3] (KS1, 24 h), this compound displayed a minimum inhibitory concentration (MIC) of 32 µg/mL (≈ 96.3 µM).
In the assay with Mycoplasma putrefaciens [1], `CCC[C@@H]1C[C@@H](C(=O)N[C@@H]([C@H]2O[C@H](SC)[C@H](O)[C@@H](O)[C@H]2O)[C@@H](C)O)N(C)C1` [LINCOMYCIN] had an MIC50 of 0.5 µg/mL (≈ 1.23 µM) and an MIC90 of 1 µg/mL (≈ 2.46 µM). Besides, in the assay on Mycoplasma putrefaciens [2], the MIC50 turned out to be 1 µg/mL (≈ 2.46 µM) and the MIC90 amounted to 2 µg/mL (≈ 4.92 µM). This compound returned a minimum inhibitory concentration (MIC) in the assay on Mycoplasma putrefaciens [3] (KS1, 24 h) of 1 µg/mL (≈ 2.46 µM).
On to `CN(C)[C@@H]1C(O)=C(C(N)=O)C(=O)[C@@]2(O)C(O)=C3C(=O)c4c(O)cccc4[C@@](C)(O)[C@H]3[C@H](O)[C@@H]12` [OXYTETRACYCLINE], for which, in the assay with Mycoplasma putrefaciens [1], the MIC50 turned out to be 0.5 µg/mL (≈ 1.09 µM) and the MIC90 worked out at 0.5 µg/mL (≈ 1.09 µM). In the assay on Mycoplasma putrefaciens [2], the MIC50 was determined as 1 µg/mL (≈ 2.17 µM) and the MIC90 was determined as 4 µg/mL (≈ 8.69 µM). Besides, the MIC against Mycoplasma putrefaciens [3] (KS1, 24 h) stood at 0.5 µg/mL (≈ 1.09 µM).
As for SPIRAMYCIN, in the assay on Mycoplasma putrefaciens [1], the MIC50 was 0.125 µg/mL and the MIC90 was 0.25 µg/mL. In the assay with Mycoplasma putrefaciens [2], this compound registered an MIC50 of 0.25 µg/mL and an MIC90 of 0.5 µg/mL. The MIC against Mycoplasma putrefaciens [3] stood at 0.25 µg/mL.
In the assay with Mycoplasma putrefaciens [1], `CC[C@H]1OC(=O)[C@H](C)[C@@H](O[C@H]2C[C@@](C)(OC)[C@@H](O)[C@H](C)O2)[C@H](C)[C@@H](O[C@@H]2O[C@H](C)C[C@H](N(C)C)[C@H]2O)[C@](C)(O)C[C@@H](C)C(=O)[C@H](C)[C@@H](O)[C@]1(C)O` [ERYTHROMYCIN] gave an MIC50 of 0.03 µg/mL (≈ 0.0409 µM) and an MIC90 of 0.03 µg/mL (≈ 0.0409 µM). Moreover, in the assay with Mycoplasma putrefaciens [2], the MIC50 stood at 0.03 µg/mL (≈ 0.0409 µM) and the MIC90 is 0.125 µg/mL (≈ 0.17 µM). Moreover, the minimum inhibitory concentration (MIC) in the assay with Mycoplasma putrefaciens [3] (KS1, 24 h) turned out to be 0.03 µg/mL (≈ 0.0409 µM).
In the assay with Mycoplasma putrefaciens [1], `CCn1cc(C(=O)O)c(=O)c2cc(F)c(N3CCNCC3)cc21` [NORFLOXACIN] came in with an MIC50 of 2 µg/mL (≈ 6.26 µM) and an MIC90 of 2 µg/mL (≈ 6.26 µM). Moreover, in the assay with Mycoplasma putrefaciens [2], the MIC50 was 2 µg/mL (≈ 6.26 µM) and the MIC90 was 4 µg/mL (≈ 12.5 µM). The compound also came in with an MIC in the assay on Mycoplasma putrefaciens [3] (KS1, 24 h) of 2 µg/mL (≈ 6.26 µM).

The term MIC50 denotes an inhibitory concentration at the 50% level, which refers to growth in some studies and to a panel of isolates in others. What is called MIC90 is the lowest concentration that inhibits either 90% of growth or 90% of the strains tested, depending on the study. A lower MIC90 goes with greater potency. The MIC is the smallest concentration in the dilution series that meets the test's criterion for growth inhibition. Low values mean greater potency, high ones weaker potency.

The record behind these values is ChEMBL document CHEMBL1154426, “In vitro susceptibilities of Mycoplasma putrefaciens field isolates” (2007).
